Consider four molecules from article PMC11425824 (ACS Omega, 2024).

The target of one data set is CDK1 (Homo sapiens, UniProt P06493). The data set is described as follows: In vitro CDK1 kinase assay. The format is biochemical.
The conditions of data set [1]: cited from earlier work.
For data set [2] the following is noted: cited from earlier work. The source holds these as a separate data set.
The test system of the next data set is primary hepatocytes. The settings on record: cited from earlier work.

Structures are written as SMILES. pIC50: −log10 of the molar value.

Sequence of CDK1 (P20248 whole entry): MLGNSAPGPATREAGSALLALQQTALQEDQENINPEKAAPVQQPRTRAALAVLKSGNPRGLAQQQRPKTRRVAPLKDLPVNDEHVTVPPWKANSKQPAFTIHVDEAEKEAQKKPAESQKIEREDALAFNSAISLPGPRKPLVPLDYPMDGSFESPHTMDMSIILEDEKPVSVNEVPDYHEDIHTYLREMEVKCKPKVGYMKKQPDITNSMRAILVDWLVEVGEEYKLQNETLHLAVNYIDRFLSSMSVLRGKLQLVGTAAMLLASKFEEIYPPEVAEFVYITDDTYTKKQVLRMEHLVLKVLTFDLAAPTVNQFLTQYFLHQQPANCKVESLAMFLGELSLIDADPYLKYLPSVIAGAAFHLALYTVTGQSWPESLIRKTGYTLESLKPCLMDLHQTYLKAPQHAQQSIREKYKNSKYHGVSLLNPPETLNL
Sequence of CDK1 (P06493 whole entry): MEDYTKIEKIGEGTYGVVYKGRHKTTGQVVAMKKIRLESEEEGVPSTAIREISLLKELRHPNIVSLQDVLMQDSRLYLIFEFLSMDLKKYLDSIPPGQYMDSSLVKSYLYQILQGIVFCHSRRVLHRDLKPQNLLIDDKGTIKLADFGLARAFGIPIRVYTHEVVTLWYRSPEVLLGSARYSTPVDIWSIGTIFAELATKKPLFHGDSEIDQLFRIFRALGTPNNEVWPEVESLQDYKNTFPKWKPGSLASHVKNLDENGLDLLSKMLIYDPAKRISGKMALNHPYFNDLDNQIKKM

For the molecule `O=C1NC(=NCc2cccs2)S/C1=C\c1ccc2ncccc2c1` [RO-3306], the CDK1 activity entry on CDK1 (1 μM) is given as “around 20%”. The same molecule registered a CDK1 inhibition on CDK1 (higher concentrations (10 and 100 μM)) of 100%. Also, the “Clearance from the blood plasma” value in data set [1] is recorded as “rapid clearance”.

The molecule `CC(C)OC(=O)[C@H](C)N[P@](=O)(CO[C@H](C)Cn1cnc2c(N)ncnc21)Oc1ccccc1` [DB_1, tenofovir alafenamide] had a negative logarithm of the IC50 (pIC50) on CDK1 of 5.55. In addition, in data set [2], the Cytotoxicity profile entry is “minimal cytotoxic effects” and the Mitochondrial toxicity entry is reported as “low potential for mitochondrial toxicity”.

`CCO[C@@H](Cc1ccc(OCCc2ccc(OS(C)(=O)=O)cc2)cc1)C(=O)O` [DB_6, tesaglitazar] gave a pIC50 at CDK1 of 5.36. For the same molecule, in the data set on primary hepatocytes, the “Toxicity to primary hepatocytes” value is recorded as “no significant toxicity”.

As for `Cc1cc2cc(Oc3ccnc(Nc4cccc(CS(=O)(=O)NCCN(C)C)c4)n3)ccc2[nH]1` [DB_7, Surufatinib], the negative-log IC50 (pIC50) against CDK1 is 5.23.
